Among the data in patent US20230295197A1, “STAT5 and STAT6 Degraders and Uses Thereof” (REGENTS OF THE UNIVERSITY OF MICHICAN, priority 2022, published 2023) are DC50 values, retold here.

For the assay, the target named is T1, STAT6 (Homo sapiens, UniProt P42226).
T1 construct: endogenous in cells; host or cells: MOLM-16, KU-812, SKNO1, MB231, L1236
T1 sequence (P42226 1-847): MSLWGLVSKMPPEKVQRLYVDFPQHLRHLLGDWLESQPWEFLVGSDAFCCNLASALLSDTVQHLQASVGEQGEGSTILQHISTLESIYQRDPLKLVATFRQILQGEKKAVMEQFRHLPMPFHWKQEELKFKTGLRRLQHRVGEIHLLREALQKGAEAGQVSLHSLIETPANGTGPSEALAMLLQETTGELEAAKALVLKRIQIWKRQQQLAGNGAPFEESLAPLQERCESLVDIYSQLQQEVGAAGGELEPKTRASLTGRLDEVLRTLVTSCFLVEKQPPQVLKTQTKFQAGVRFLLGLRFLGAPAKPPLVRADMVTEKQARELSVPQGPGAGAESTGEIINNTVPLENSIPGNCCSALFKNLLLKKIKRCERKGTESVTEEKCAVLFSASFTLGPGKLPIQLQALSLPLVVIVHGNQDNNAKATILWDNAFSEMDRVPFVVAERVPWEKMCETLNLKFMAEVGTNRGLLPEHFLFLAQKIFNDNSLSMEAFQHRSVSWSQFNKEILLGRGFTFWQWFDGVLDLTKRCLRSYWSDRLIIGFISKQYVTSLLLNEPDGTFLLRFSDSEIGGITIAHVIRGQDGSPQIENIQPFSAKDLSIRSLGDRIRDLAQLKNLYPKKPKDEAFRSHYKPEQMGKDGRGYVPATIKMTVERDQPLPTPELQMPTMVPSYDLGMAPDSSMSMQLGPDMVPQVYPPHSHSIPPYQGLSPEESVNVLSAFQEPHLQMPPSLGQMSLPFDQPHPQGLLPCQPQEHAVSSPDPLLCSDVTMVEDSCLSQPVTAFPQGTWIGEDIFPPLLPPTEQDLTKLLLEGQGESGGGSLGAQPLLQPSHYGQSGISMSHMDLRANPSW
The assay is described as follows: Immunoblotting (Western blot) analysis of STAT6 degradation efficiency of degraders in treated cells. Format: cell-based. The method, then: Evaluation of the degradation efficiency of degraders may be accomplished by immunoblotting analysis. The representative general protocol is the following:
Cells are maintained in the appropriate culture medium with 10% FBS at 37° C. and an atmosphere of 5% CO2. Cell lines are used within three months of thawing fresh vials. Cells are lysed 1× Cell Lysis Buffer (Cell Signaling Technology, #9803), resolved by SDS-PAGE NuPAGE gel (Thermo Fisher Scientific), and transferred to a PVDF membrane (Millipore). Membranes are blocked using Odyssey TBS Blocker Buffer (LI-COR). IRDye 680RD and 800CW Dye-labeled secondary antibodies (LI-COR) are used. The washed membranes are scanned using Odyssey CLx imager (LI-COR). The intensity of Western blot signaling is quantitated using the Odyssey software. Primary antibodies used are: STAT5 Rabbit mAb (Cell Signaling Technology, #94205), STAT6 Rabbit mAb (Cell Signaling Technology, #5397) and GAPDH mouse monoclonal antibody (Santa Cruz Biotechnology, sc-47724).
To evaluate the degradation efficiency of degraders, immunoblotting analysis was performed. The general protocol is the following.
About 1 million cells for each data point were treated with compounds at indicated concentrations and durations. Untreated and treated cells in cell culture medium were transferred into tubes, followed by centrifugation at 3,000 rpm and 4° C. for 6 min Supernatants were removed from tubes and radioimmunoprecipitation assay (RIPA) lysis buffer supplemented with 1% protease inhibitor cocktail (Fisher Scientific cat. PI87786) and phosphatase inhibitor (Roche cat. 04906837001) were added to tubes containing the remaining cell pellets. The tubes were then left on ice for 30 min and placed in a −80° C. freezer. Subsequently they were thawed in 37° C. water, then centrifuged at 14,000 rpm for 15 min and the cell lysates transferred to new tubes. The concentration of total proteins in each tube was calculated using the Pierce BCA protein Assay kit (cat. 23225). Based on the calculated protein concentration, cell lysates containing approximately the same amount of proteins were transferred to new tubes, then distilled water and 4× Protein Sample Loading Buffer for Western Blots (LI-COR cat. 928-40004) supplemented with 20% of mercaptoethanol (Sigma Aldrich cat. M6250) were added on ice. The cell lysates were then reduced and denatured at 95° C. for 5 min. From the tubes containing cell lysates an equal amount of protein samples (20-40 μg) was loaded into precast 8%, 10%, 4%-12%, or 4%-20% Tris-glycine gels (Novex) filled with Tris-glycine SDS running buffer. After the proteins were resolved, they were transferred onto Immobile-FL PVDF Membrane (Millipore Sigma cat. IPFL00010), using Mini Trans-Blot Electrophoretic Transfer Cell (Bio-Rad 1703930). The membranes were blocked with Intercept Blocking Buffer (LI-COR cat. 927-70001) in LI-COR Western Blot boxes for 1 h at rt. The membranes were washed with 1× Tris-buffered saline-Tween-20 (TBST, 1× solution was made from 20×TBST solution, ThermoFisher Scientific cat. 28360) for 5 min 4 times. The membranes were incubated overnight at 4° C. in Intercept Blocking Buffer supplemented with primary antibodies (normally antibody:buffer 1:1000) and Tween-20. The membranes were washed with TBST for 5 min 4 times and were incubated with Intercept Blocking Buffer supplemented with IRDye 800CE Secondary Antibodies, IRDye 680RD Secondary Antibodies (LI-COR biosciences), Tween-20, and 10% SDS solution, for 1 h at rt. The membranes were then washed with TBST for 5 min 4 times and rinsed with deionized water before drying and scanning with Odyssey Dlx Amazing System (LI-COR). The immunoblots were finally quantified by the software.
A general note: In western blotting, separated proteins are transferred to a membrane and probed.

[1] abbreviates: L1236 cells, read-out: DC50 S6 L1236.
The mark [2] stands for this setting: MOLM-16 cells, class symbols, read-out: DC50 S6 MOLM-16.

The structures appear in SMILES notation. Like-named read-outs stand apart in the source and are kept apart here. *1 amine or outer side, *2 acyl side, *3 side chain or, on linkers, in order; H or OH if unused. Where a SMILES comes first, the peptide text is derived from it. [ ]: non-standard residue; d: D form. The star is where a group is joined. Benzothienyl2CO(5-CF2PO3H2) = O=C(c1cc2cc(C(F)(F)P(=O)(O)O)ccc2s1)*; βAla(N-(4-Br-phenyl)) = O=C(CCN(c1ccc(Br)cc1)[*:1])[*:2]; NHBn(4-(4-Me-thiazol-5-yl)) = Cc1ncsc1-c1ccc(CN*)cc1; NH(CH2)8CO = O=C(CCCCCCCCN[*:1])[*:2]; Hyp = O=C(O)[C@@H]1C[C@@H](O)CN1; Tle = CC(C)(C)[C@H](N)C(=O)O Some results are limits rather than exact numbers.

Regarding `Cc1ncsc1-c1ccc([C@H](C)NC(=O)[C@@H]2C[C@@H](O)CN2C(=O)[C@@H](NC(=O)CCCCNC(=O)COc2ccc3c(c2)CN(C(=O)[C@@H](NC(=O)c2cc4cc(C(F)(F)P(=O)(O)O)ccc4s2)C(C)(C)C)[C@H](C(=O)N2CCO[C@H](c4ccccc4)C2)C3)C(C)(C)C)cc1` [Compound 464, (difluoro(2-(((S)-1-((S)-7-(2-((5-(((S)-1-((2S,4R)-4-hydroxy-2-(((S)-1-(4-(4-methylthiazol-5-yl)phenyl)ethyl)carbamoyl)pyrrolidin-1-yl)-3,3-dimethyl-1-oxobutan-2-yl)amino)-5-oxopentyl)amino)-2-oxoethoxy)-3-((R)-2-phenylmorpholine-4-carbonyl)-3,4-dihydroisoquinolin-2(1H)-yl)-3,3-dimethyl-1-oxobutan-2-yl)carbamoyl)benzo[b]thiophen-5-yl)methyl)phosphonic acid], the DC50 – broadly, the concentration giving 50% degradation – under setting [1] was over 10 µM and the DC50 under setting [2] is over 10 µM. For the molecule `O=C1CCC(N2Cc3cc(C#CCCCCCC(=O)N4CC[C@H]5CC[C@@H](C(=O)N6CCOC(c7ccc(F)c(Cl)c7)C6)N5C(=O)[C@@H](NC(=O)c5cc6cc(C(F)(F)P(=O)(O)O)ccc6s5)C4)ccc3C2=O)C(=O)N1` (stereo partly drawn) [Compound 575, ((2-(((5S,8S,10aR)-8-(2-(3-chloro-4-fluorophenyl)morpholine-4-carbonyl)-3-(8-(2-(2,6-dioxopiperidin-3-yl)-1-oxoisoindolin-5-yl)oct-7-ynoyl)-6-oxodecahydropyrrolo[1,2-a][1,5]diazocin-5-yl)carbamoyl)benzo[b]thiophen-5-yl)difluoromethyl)phosphonic acid], the DC50 by setting is: under setting [1], over 10 µM; under setting [2], over 10 µM. Take `CC(C)(C)[C@H](NC(=O)c1cc2cc(C(F)(F)P(=O)(O)O)ccc2s1)C(=O)N1C[C@@H](OCC(=O)NCCCCCCCCCC#Cc2ccc3c(c2)C(=O)N(C2CCC(=O)NC2=O)C3=O)C[C@H]1C(=O)N1CCO[C@H](c2ccccc2)C1` (stereo partly drawn) [Compound 492, ((2-(((2S)-1-((2S,4S)-4-(2-((11-(2-(2,6-dioxopiperidin-3-yl)-1,3-dioxoisoindolin-5-yl)undec-10-yn-1-yl)amino)-2-oxoethoxy)-2-((R)-2-phenylmorpholine-4-carbonyl)pyrrolidin-1-yl)-3,3-dimethyl-1-oxobutan-2-yl)carbamoyl)benzo[b]thiophen-5-yl)difluoromethyl)phosphonic acid]: under setting [2], the DC50 was over 10 µM. For `Cc1ncsc1-c1ccc([C@H](C)NC(=O)[C@@H]2C[C@@H](O)CN2C(=O)[C@@H](NC(=O)CCCCCCNC(=O)CO[C@H]2C[C@@H](C(=O)N3CCO[C@H](c4ccccc4)C3)N(C(=O)[C@@H](NC(=O)c3cc4cc(C(F)(F)P(=O)(O)O)ccc4s3)C(C)(C)C)C2)C(C)(C)C)cc1` [Compound 430, (difluoro(2-(((S)-1-((2S,4S)-4-(2-((7-(((S)-1-((2S,4R)-4-hydroxy-2-(((S)-1-(4-(4-methylthiazol-5-yl)phenyl)ethyl)carbamoyl)pyrrolidin-1-yl)-3,3-dimethyl-1-oxobutan-2-yl)amino)-7-oxoheptyl)amino)-2-oxoethoxy)-2-((R)-2-phenylmorpholine-4-carbonyl)pyrrolidin-1-yl)-3,3-dimethyl-1-oxobutan-2-yl)carbamoyl)benzo[b]thiophen-5-yl)methyl)phosphonic acid], the DC50 by setting is: under setting [1], over 10 µM; under setting [2], over 10 µM.

Take `CC(C)(C)[C@H](NC(=O)c1cc2cc(C(F)(F)P(=O)(O)O)ccc2s1)C(=O)N1C[C@@H](OCC(=O)NCCCC#Cc2ccc3c(c2)C(=O)N(C2CCC(=O)NC2=O)C3=O)C[C@H]1C(=O)N1CCO[C@H](c2ccccc2)C1` (stereo partly drawn) [Compound 484, ((2-(((2S)-1-((2S,4S)-4-(2-((5-(2-(2,6-dioxopiperidin-3-yl)-1,3-dioxoisoindolin-5-yl)pent-4-yn-1-yl)amino)-2-oxoethoxy)-2-((R)-2-phenylmorpholine-4-carbonyl)pyrrolidin-1-yl)-3,3-dimethyl-1-oxobutan-2-yl)carbamoyl)benzo[b]thiophen-5-yl)difluoromethyl)phosphonic acid]: the DC50 under setting [2] lay within 1 to 10 µM. Turning to `Cc1ncsc1-c1ccc(CNC(=O)[C@@H]2C[C@@H](O)CN2C(=O)[C@@H](NC(=O)CCCCCCCCNC(=O)CCN(C(=O)[C@@H]2CCCN2C(=O)[C@@H](NC(=O)c2cc3cc(C(F)(F)P(=O)(O)O)ccc3s2)C(C)(C)C)c2ccc(Br)cc2)C(C)(C)C)cc1` [Compound 397] ({Benzothienyl2CO(5-CF2PO3H2)}-[Tle]P[βAla(N-(4-Br-phenyl))][NH(CH2)8CO][Tle][Hyp]-{NHBn(4-(4-Me-thiazol-5-yl))}), the DC50 (read-out: DC50 S6 MB231, MB231 cells) was over 10 µM. For the molecule `CC(C)(C)[C@H](NC(=O)c1cc2cc(C(F)(F)P(=O)(O)O)ccc2s1)C(=O)N1Cc2cc(OCC(=O)NCCCCC#Cc3ccc4c(c3)C(=O)N(C3CCC(=O)NC3=O)C4=O)ccc2C[C@H]1C(=O)N1CCC[C@H](c2ccccc2)C1` (stereo partly drawn) [Compound 556, ((2-(((2S)-1-((3S)-7-(2-((6-(2-(2,6-dioxopiperidin-3-yl)-1,3-dioxoisoindolin-5-yl)hex-5-yn-1-yl)amino)-2-oxoethoxy)-3-((R)-3-phenylpiperidine-1-carbonyl)-3,4-dihydroisoquinolin-2(1H)-yl)-3,3-dimethyl-1-oxobutan-2-yl)carbamoyl)benzo[b]thiophen-5-yl)difluoromethyl)phosphonic acid], the DC50 under setting [2] was over 10 µM. Take `CC(C)(C)[C@H](NC(=O)c1cc2cc(C(F)(F)P(=O)(O)O)ccc2s1)C(=O)N1CCN(C(=O)CC(=O)NCCCC#Cc2cccc3c2C(=O)N(C2CCC(=O)NC2=O)C3=O)C[C@H]1C(=O)N1CCC[C@H](c2ccccc2)C1` (stereo partly drawn) [Compound 525, ((2-(((2S)-1-((2S)-4-(3-((5-(2-(2,6-dioxopiperidin-3-yl)-1,3-dioxoisoindolin-4-yl)pent-4-yn-1-yl)amino)-3-oxopropanoyl)-2-((R)-3-phenylpiperidine-1-carbonyl)piperazin-1-yl)-3,3-dimethyl-1-oxobutan-2-yl)carbamoyl)benzo[b]thiophen-5-yl)difluoromethyl)phosphonic acid]: the DC50 under setting [2] is over 10 µM.
